The source of these data is patent publication US8188085B2, “Antifungal agents” (Merck Sharp & Dohme Corp., priority 2008, dated 2012).

Counter-ions that a name gives are not always drawn.

In one test the target is glucan synthase (GS) prepared from Candida albicans MY1055 (Candida albicans, UniProt O13428). Nature of the test: Glucan synthase inhibition (polymerization assay, 96-well). In kind it is biochemical.
Sequence of glucan synthase (GS) prepared from Candida albicans MY1055 (O13428 1-1897): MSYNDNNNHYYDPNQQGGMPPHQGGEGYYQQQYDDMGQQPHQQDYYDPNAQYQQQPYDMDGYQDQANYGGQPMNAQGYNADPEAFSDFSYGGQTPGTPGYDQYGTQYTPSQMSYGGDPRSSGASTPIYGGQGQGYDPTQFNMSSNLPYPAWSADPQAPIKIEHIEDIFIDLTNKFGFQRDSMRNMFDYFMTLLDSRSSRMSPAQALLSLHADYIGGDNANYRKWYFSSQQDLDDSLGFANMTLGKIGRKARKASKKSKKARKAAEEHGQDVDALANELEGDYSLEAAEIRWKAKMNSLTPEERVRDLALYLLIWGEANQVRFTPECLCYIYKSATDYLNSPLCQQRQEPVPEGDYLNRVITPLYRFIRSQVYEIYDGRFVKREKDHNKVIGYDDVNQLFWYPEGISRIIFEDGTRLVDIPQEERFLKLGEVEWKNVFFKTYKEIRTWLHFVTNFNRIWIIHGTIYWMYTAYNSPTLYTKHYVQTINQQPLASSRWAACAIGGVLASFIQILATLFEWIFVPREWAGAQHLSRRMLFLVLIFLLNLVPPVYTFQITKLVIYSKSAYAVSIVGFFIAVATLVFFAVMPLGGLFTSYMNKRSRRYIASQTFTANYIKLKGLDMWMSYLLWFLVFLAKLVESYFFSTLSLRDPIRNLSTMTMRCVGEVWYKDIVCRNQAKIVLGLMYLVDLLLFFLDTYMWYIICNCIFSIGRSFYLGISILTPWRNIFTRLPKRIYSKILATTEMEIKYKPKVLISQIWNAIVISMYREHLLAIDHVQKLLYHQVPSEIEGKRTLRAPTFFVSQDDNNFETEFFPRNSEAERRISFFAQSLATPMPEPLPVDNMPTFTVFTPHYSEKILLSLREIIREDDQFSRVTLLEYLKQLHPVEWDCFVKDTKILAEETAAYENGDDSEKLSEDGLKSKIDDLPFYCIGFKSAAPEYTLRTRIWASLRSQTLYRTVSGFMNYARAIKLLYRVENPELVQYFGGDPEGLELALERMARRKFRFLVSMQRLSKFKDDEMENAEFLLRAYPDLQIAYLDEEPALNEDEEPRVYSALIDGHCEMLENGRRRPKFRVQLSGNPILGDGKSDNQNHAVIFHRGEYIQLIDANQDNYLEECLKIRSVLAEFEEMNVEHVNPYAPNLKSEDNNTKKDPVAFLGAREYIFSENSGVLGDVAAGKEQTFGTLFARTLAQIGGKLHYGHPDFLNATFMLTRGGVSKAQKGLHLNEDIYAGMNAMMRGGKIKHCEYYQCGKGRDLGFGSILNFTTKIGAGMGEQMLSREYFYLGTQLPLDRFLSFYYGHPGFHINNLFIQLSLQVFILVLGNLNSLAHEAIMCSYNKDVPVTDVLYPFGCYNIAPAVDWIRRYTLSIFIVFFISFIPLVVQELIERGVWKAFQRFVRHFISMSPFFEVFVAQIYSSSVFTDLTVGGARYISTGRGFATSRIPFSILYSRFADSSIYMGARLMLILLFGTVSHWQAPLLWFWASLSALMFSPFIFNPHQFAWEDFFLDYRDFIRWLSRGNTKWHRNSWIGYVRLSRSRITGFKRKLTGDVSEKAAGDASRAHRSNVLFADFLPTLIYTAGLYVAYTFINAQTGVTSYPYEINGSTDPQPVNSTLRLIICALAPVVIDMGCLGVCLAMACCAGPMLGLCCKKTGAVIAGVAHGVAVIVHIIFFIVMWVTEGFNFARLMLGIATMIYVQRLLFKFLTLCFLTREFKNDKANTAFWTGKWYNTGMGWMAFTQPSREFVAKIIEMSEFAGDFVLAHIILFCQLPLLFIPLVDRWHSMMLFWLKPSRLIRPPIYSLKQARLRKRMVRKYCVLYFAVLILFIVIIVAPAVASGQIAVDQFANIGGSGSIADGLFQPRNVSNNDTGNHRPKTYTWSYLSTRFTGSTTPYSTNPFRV
Settings: not given
In outline:
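Partially purified glucan synthase from C. albicans MY1055 membranes incorporated 0.5 mM ³H-UDPG with 25 μM GTP-γ-S, HEPES pH 7.5, over 60 min at 22 °C. TCA-precipitated glucan was counted by scintillation. IC50 (ng/mL) came from sigmoidal fits of duplicate 3-fold dilution series.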
As usually defined, the IC50 is the midpoint of a concentration-inhibition curve. The molecule `CC(C)[C@@H](C)[C@@]1(C)CC[C@]2(C)[C@H]3CC[C@@H]4[C@@]5(COC[C@@]4(C)[C@@H](OC[C@](C)(N)C(C)(C)C)[C@H](n4ncnc4-c4ccc[n+](C)c4)C5)C3=CC[C@@]2(C)[C@@H]1C(=O)O` [Example 264, (1S,4aR,6aS,7R,8R,10aR,10bR,12aR,14R,15R)-15-[[(2R)-2-amino-2,3,3-trimethylbutyl]oxy]-8-[(1R)-1,2-dimethylpropyl]-14-[5-(1-methyl-3-pyridiniumyl)-1H-1,2,4-triazol-1-yl]-1,6,6a,7,8,9,10,10a,10b,11,12,12a-dodecahydro-1,6a,8,10a-tetramethyl-4H-1,4a-propano-2H-phenanthro[1,2-c]pyran-7-carboxylic acid trifluoroacetate] gave an IC50 of 0.403 nM.

Staying with this test, now noted: GS from C. albicans MY1055; 60 min incubation at 22° C.; read-out: Candida Albicans GS IC50 (converted).
With `CC(C)[C@@H](C)[C@@]1(C)CC[C@]2(C)[C@H]3CC[C@@H]4[C@@]5(COC[C@@]4(C)[C@@H](OC[C@](C)(N)C(C)(C)C)[C@H](n4ncnc4-c4cccc(C(N)=O)c4)C5)C3=CC[C@@]2(C)[C@@H]1C(=O)O` [Example 228, (1S,4aR,6aS,7R,8R,10aR,10bR,12aR,14R,15R)-14-[5-[3-(aminocarbonyl)phenyl]-1H-1,2,4-triazol-1-yl]-15-[[(2R)-2-amino-2,3,3-trimethylbutyl]oxy]-8-[(1R)-1,2-dimethylpropyl]-1,6,6a,7,8,9,10,10a,10b,11,12,12a-dodecahydro-1,6a,8,10a-tetramethyl-4H-1,4a-propano-2H-phenanthro[1,2-c]pyran-7-carboxylic acid], the IC50 was 7.77 nM.
Still for that read-out and setting: under `CC(C)[C@@H](C)[C@@]1(C)CC[C@]2(C)[C@H]3CC[C@@H]4[C@@]5(COC[C@@]4(C)[C@@H](OC[C@](C)(N)C(C)(C)C)[C@H](n4ncnc4-c4ccc(C(=O)O)cc4)C5)C3=CC[C@@]2(C)[C@@H]1C(=O)O` [Example 235, (1S,4aR,6aS,7R,8R,10aR,10bR,12aR,14R,15R)-15-[[(2R)-2-amino-2,3,3-trimethylbutyl]oxy]-14-[5-(4-carboxyphenyl)-1H-1,2,4-triazol-1-yl]-8-[(1R)-1,2-dimethylpropyl]-1,6,6a,7,8,9,10,10a,10b,11,12,12a-dodecahydro-1,6a,8,10a-tetramethyl-4H-1,4a-propano-2H-phenanthro[1,2-c]pyran-7-carboxylic acid] stands 6.47 nM; under `CC(C)[C@@H](C)[C@@]1(C)CC[C@]2(C)[C@H]3CC[C@@H]4[C@@]5(COC[C@@]4(C)[C@@H](OC[C@](C)(N)C(C)(C)C)[C@H](n4ncnc4-c4ccc(CN(C)C)cc4)C5)C3=CC[C@@]2(C)[C@@H]1C(=O)O` [Example 239, (1S,4aR,6aS,7R,8R,10aR,10bR,12aR,14R,15R)-15-[[(2R)-2-amino-2,3,3-trimethylbutyl]oxy]-14-[5-[4-[(dimethylamino)methyl]phenyl]-1H-1,2,4-triazol-1-yl]-8-[(1R)-1,2-dimethylpropyl]-1,6,6a,7,8,9,10,10a,10b,11,12,12a-dodecahydro-1,6a,8,10a-tetramethyl-4H-1,4a-propano-2H-phenanthro[1,2-c]pyran-7-carboxylic acid], 0.127 nM; under `CCC(N)(CC)CO[C@H]1[C@H](n2ncnc2-c2ccncc2)C[C@@]23COC[C@]1(C)[C@@H]2CC[C@H]1C3=CC[C@@]2(C)[C@H](C(=O)O)[C@@](C)([C@H](C)C(C)C)CC[C@]12C` [Example 241, (1S,4aR,6aS,7R,8R,10aR,10bR,12aR,14R,15R)-15-(2-amino-2-ethylbutoxy)-8-[(1R)-1,2-dimethylpropyl]-14-[5-(4-pyridinyl)-1H-1,2,4-triazol-1-yl]-1,6,6a,7,8,9,10,10a,10b,11,12,12a-dodecahydro-1,6a,8,10a-tetramethyl-4H-1,4a-propano-2H-phenanthro[1,2-c]pyran-7-carboxylic acid], 1.4 nM.
On the same count and under the same terms, the result for `CC(C)[C@@H](C)[C@@]1(C)CC[C@]2(C)[C@H]3CC[C@@H]4[C@@]5(COC[C@@]4(C)[C@@H](OC[C@](C)(N)c4ccccc4)[C@H](n4ncnc4-c4ccncc4)C5)C3=CC[C@@]2(C)[C@@H]1C(=O)O` [Example 245, (1S,4aR,6aS,7R,8R,10aR,10bR,12aR,14R,15R)-15-[[(2R)-2-amino-2-phenylpropyl]oxy]-8-[(1R)-1,2-dimethylpropyl]-14-[5-(4-pyridinyl)-1H-1,2,4-triazol-1-yl]-1,6,6a,7,8,9,10,10a,10b,11,12,12a-dodecahydro-1,6a,8,10a-tetramethyl-4H-1,4a-propano-2H-phenanthro[1,2-c]pyran-7-carboxylic acid] reads 8 nM; that for `CC(C)[C@@H](C)[C@@]1(C)CC[C@]2(C)[C@H]3CC[C@@H]4[C@@]5(COC[C@@]4(C)[C@@H](OC[C@](C)(N)C(C)(C)C)[C@H](n4ncnc4-c4ccc(C6=NCCN6)cc4)C5)C3=CC[C@@]2(C)[C@@H]1C(=O)O` [Example 268, (1S,4aR,6aS,7R,8R,8R,10aR,10bR,12aR,14R,15R)-15-[[(2R)-2-amino-2,3,3-trimethylbutyl]oxy]-14-[5-[4-(4,5-dihydro-1H-imidazol-2-yl)phenyl]-1H-1,2,4-triazol-1-yl]-8-[(1R)-1,2-dimethylpropyl]-1,6,6a,7,8,9,10,10a,10b,11,12,12a-dodecahydro-1,6a,8,10a-tetramethyl-4H-1,4a-propano-2H-phenanthro[1,2-c]pyran-7-carboxylic acid], 0.376 nM.
The same measure, in the same setting: under `CC(C)[C@@H](C)[C@@]1(C)CC[C@]2(C)[C@H]3CC[C@@H]4[C@@]5(COC[C@@]4(C)[C@@H](OC[C@](C)(N)C(C)C)[C@H](n4ncnc4-c4ccnc(-c6cccnc6)c4)C5)C3=CC[C@@]2(C)[C@@H]1C(=O)O` [Example 272, (1S,4aR,6aS,7R,8R,10aR,10bR,12aR,14R,15R)-15-[[(2R)-2-amino-2,3-dimethylbutyl]oxy]-14-(5-[2,3′-bipyridin]-4-yl-1H-1,2,4-triazol-1-yl)-8-[(1R)-1,2-dimethylpropyl]-1,6,6a,7,8,9,10,10a,10b,11,12,12a-dodecahydro-1,6a,8,10a-tetramethyl-4H-1,4a-propano-2H-phenanthro[1,2-c]pyran-7-carboxylic acid] stands 10.1 nM; under `COC(=O)N1CCC(c2ncnn2[C@@H]2C[C@@]34COC[C@](C)([C@@H]3CC[C@H]3C4=CC[C@@]4(C)[C@H](C(=O)O)[C@@](C)([C@H](C)C(C)C)CC[C@]34C)[C@H]2OC[C@](C)(N)C(C)(C)C)CC1` [Example 276, (1S,4aR,6aS,7R,8R,10aR,10bR,12aR,14R,1SR)-15-[[(2R)-2-amino-2,3,3-trimethylbutyl]oxy]-8-[(1R)-1,2-dimethylpropyl]-14-[5-[1-(methoxycarbonyl)-4-piperidinyl]-1H-1,2,4-triazol-1-yl]-1,6,6a,7,8,9,10,10a,10b,11,12,12a-dodecahydro-1,6a,8,10a-tetramethyl-4H-1,4a-propano-2H-phenanthro[1,2-c]pyran-7-carboxylic acid], 2.52 nM.
With `CC(C)[C@@H](C)[C@@]1(C)CC[C@]2(C)[C@H]3CC[C@@H]4[C@@]5(COC[C@@]4(C)[C@@H](OC[C@](C)(N)C(C)(C)C)[C@H](n4ncnc4C4CCOCC4)C5)C3=CC[C@@]2(C)[C@@H]1C(=O)O` [Example 285, (1S,4aR,6aS,7R,8R,10aR,10bR,12aR,14R,15R)-15-[[(2R)-2-amino-2,3,3-trimethylbutyl]oxy]-8-[(1R)-1,2-dimethylpropyl]-14-[5-(tetrahydro-2H-pyran-4-yl)-1H-1,2,4-triazol-1-yl]-1,6,6a,7,8,9,10,10a,10b,11,12,12a-dodecahydro-1,6a,8,10a-tetramethyl-4H-1,4a-propano-2H-phenanthro[1,2-c]pyran-7-carboxylic acid], the IC50 is 4.07 nM.
Same read-out and setting: the result for `CC(C)[C@@H](C)[C@@]1(C)CC[C@]2(C)[C@H]3CC[C@@H]4[C@@]5(COC[C@@]4(C)[C@@H](OC[C@](C)(N)C(C)C)[C@H](n4cccn4)C5)C3=CC[C@@]2(C)[C@@H]1C(=O)O` [Example 291, (1S,4aR,6aS,7R,8R,10aR,10bR,12aR,14R,15R)-15-[[(2R)-2-amino-2,3-dimethylbutyl]oxy]-8-[(1R)-1,2-dimethylpropyl]-14-(1H-pyrazol-1-yl)-1,6,6a,7,8,9,10,10a,10b,11,12,12a-dodecahydro-1,6a,8,10a-tetramethyl-4H-1,4a-propano-2H-phenanthro[1,2-c]pyran-7-carboxylic acid] reads 54.9 nM; that for `CC(C)[C@@H](C)[C@@]1(C)CC[C@]2(C)[C@H]3CC[C@@H]4[C@@]5(COC[C@@]4(C)[C@@H](OC[C@](C)(N)C(C)C)[C@H](n4cc(Cl)cn4)C5)C3=CC[C@@]2(C)[C@@H]1C(=O)O` [Example 295, (1S,4aR,6aS,7R,8R,10aR,10bR,12aR,14R,15R)-15-[[(2R)-2-amino-2,3-dimethylbutyl]oxy]-14-(4-chloro-1H-pyrazol-1-yl)-8-[(1R)-1,2-dimethylpropyl]-1,6,6a,7,8,9,10,10a,10b,11,12,12a-dodecahydro-1,6a,8,10a-tetramethyl-4H-1,4a-propano-2H-phenanthro[1,2-c]pyran-7-carboxylic acid], 61 nM; that for `CCNC(=O)c1ccnn1[C@@H]1C[C@@]23COC[C@](C)([C@@H]2CC[C@H]2C3=CC[C@@]3(C)[C@H](C(=O)O)[C@@](C)([C@H](C)C(C)C)CC[C@]23C)[C@H]1OC[C@](C)(N)C(C)C` [Example 298, (1S,4aR,6aS,7R,8R,10aR,10bR,12aR,14R,15R)-15-[[(2R)-2-amino-2,3-dimethylbutyl]oxy]-8-[(1R)-1,2-dimethylpropyl]-14-[5-[(ethylamino)carbonyl]-1H-pyrazol-1-yl]-1,6,6a,7,8,9,10,10a,10b,11,12,12a-dodecahydro-1,6a,8,10a-tetramethyl-4H-1,4a-propano-2H-phenanthro[1,2-c]pyran-7-carboxylic acid], 38.1 nM.
